For orientation: IC50 means the midpoint of a concentration-inhibition curve.

The values that follow come from patent US11998665B2, “Biodegradable ureteral stents, methods and uses thereof” (ASSOCIATION FOR THE ADVANCEMENT OF TISSUE ENGINEERING AND …, priority 2016, dated 2024).

The subject of one data set is T24 cancer cells. The settings on record: cited from earlier work.
Data set [1] deals with HUVEC cells (human umbilical vein endothelial cells). Put plainly: MTT cell viability, free anti-cancer drugs, IC50 determination in HUVEC cells. It counts as cell-based. As to the method:
(§1) In an embodiment, the present disclosure used a human urothelial carcinoma cell line, T24 (ATCC, U.S.A.) as a cancer cell line to model the urothelial carcinoma and human umbilical vein endothelial cells, HUVEC, (ATCC, U.S.A.) as a control, non-cancerous cell line. The T24 cell line and HUVEC cells were cultured in RPMI-1640 and EGM™-2 medium, respectively, with (10% fetal bovine serum (FBS), 1 mM L-glutamine and 1% penicillin/streptomyocin), Cells were maintained at 37° C. in a humidified 5% CO2 atmosphere.
(§2) In an embodiment, in vitro efficacy of anti-cancer drugs against T24 cells and HUVEC cells-IC50 determination. The cytotoxicity of paclitaxel, epirubicin, doxorubicin and gemcitabine was evaluated by determining the viability of T24 and HUVEC cells after exposure to medium containing the free drug at a range of concentrations from 0.01 to 2000 ng/ml. Free drugs in medium were prepared by first dissolving the anticancer drugs in DMSO (50 mg/ml) and this solution was then diluted in culture medium to achieve the desired concentration. A standard MTT cell proliferation assay (CellTiter 96® Aqueous One Solution Cell Proliferation Assay) was used to test cell viability and was performed on both cell lines to determine the half maximal inhibitory concentration (1050) of each drug. 5000 cells per well were seeded in a 96-well plate with 100 μl medium for T24 and HUVEC cells. After incubation for 24 h, the medium in each well was aspirated off and the cells were exposed to 100 μl of fresh medium containing the drugs at various concentrations for 4 h and 72 h. The cells after 4 h treatment were further cultured for 72 h in fresh (drug-free) medium. After that, the culture medium in each well was replaced by 100 μl of medium and 20 μl of CellTiter 96® AQueous One Solution Reagent, followed by 4 h incubation at 37° C. A latex rubber extract was used as negative control for cell death; while cell culture medium was used as positive control. Cell viability was quantified by UV-spectroscopy, reading the formazan absorbance at 490 nm in a microplate reader (SpectraMax i3, Molecular Devices, USA). Each sample formulation and control was tested using 12 replicates.
(§3) In an embodiment, the 1050 was determined from the fitting of the curve of cell viability, measured by MTT and the drug concentration. The fitting was performed using GraphPad software (GraphPad Prism 6.00 software, San Diego, USA).
(§4) In an embodiment, the effect of the anti-cancer drugs (IC50) when in contact with T24 and HUVEC cells was investigated by a cell viability test, namely the MTT assay. From this, the IC50 was calculated for each of the four drugs in each of the two cell lines. In this case, IC50 is a measure of the concentration needed to inhibit cell survival, and is routinely used to specify the in vitro potency of a drug (Sebaugh, 2011). The T24 cell line was chosen as a muscle invasive urothelial cancer and the HUVEC cells were used as non-cancerous control cells. The cytotoxicity evaluation was carried out either after 4 h or 72 h of exposure of the cells to the free drugs at different concentrations (FIGS. 5 A and B). […] In FIGS. 5 (A and B) it is possible to see, for both cell types the trend of concentration-dependent cytotoxicity. These are similar, in all cases and as it would be expected the 72 h exposure present a higher killing efficacy. Comparing the results between the two cells it is possible to conclude that the cancer cells are much more sensitive to the anti-cancer drugs compared with the HUVEC cells.

Data set [2] concerns T24 cells (human urothelial carcinoma cell line). Put plainly: MTT cell viability, free anti-cancer drugs, IC50 determination in T24 cells. The data set is classed as cell-based. As to the method: as §1, §2, §3, §4
A short description of data set [3]: Quantity of drug impregnated in stents by scCO2 (UV-spectroscopy after degradation in AUS). The data set is classed as physicochemical. The settings on record: for Quantity of drug impregnated by scCO2: 90 min, 100 bar, 40° C.; for increase in the impregnation yield when ethanol was used as a co-solvent: DrugEtOH versus pure scCO2; for % loaded: amount of drug impregnated by scCO2 in BUS. As to the method: In an embodiment, a supercritical CO2 impregnation of anti-cancer drugs was performed, in the biodegradable ureteral stents (BUS) of the present disclosure. The were biodegradable ureteral stents prepared were placed in high-pressure vessel with anti-cancer drugs (10 mg) according to FIG. 2. The anti-cancer drugs were impregnated in the stents with and without the presence of a co-solvent. The scCO2 impregnation conditions used were 100 bar at 40° C. and 90 min. Carbon dioxide was liquefied and pumped to the desired pressure using a membrane pump (MCPV-71, Haskel, Germany). Impregnation took place in batch mode for 90 min followed by fast depressurization of the system. When a co-solvent was employed, 10% (v/v) ethanol was used. A commercial non-degradable ureteral stent (Biosoft® duo, Porges, Coloplast) was impregnated with same drugs at the same conditions with co-solvent, to be used as a control. To enhance the mechanical properties of the stent a PCL coating was applied. To evaluate the effect of coating on the release of the drugs the condition BUS+Co-Solvent was prepared twice and one of this batches was coated with PCL resin.
The anticancer drugs impregnation yield (I) was calculated from Eq. (1): I(%)=mdrug/mstent+mdrug×100 Eq. (1) where mstent is the polymer mass at the beginning of the process and the mdrug is the mass of the respective anticancer drug released after complete degradation of the stents in AUS. Anti-cancer drugs concentration was calculated from a calibration curve prepared from standard solutions. The samples were analyzed by UV-spectroscopy using a microplate reader (SpectraMax i3, Molecular Devices, USA) at the maximum absorbance for each drug (227 nm for PA, 254 nm for EP and DOX and 268 nm for GEM). All the experiments were performed in triplicate.
In an embodiment, impregnation efficiency of anti-cancer drugs in the biodegradable ureteral stents (BUS) was determined as a function of mass (μg) of anti-cancer drugs per mass (mg) of the polymer. In the DrugEtOH conditions, the amount of anti-cancer drug impregnated in the stents is higher, as it would be expected due to the co-solvent effect of ethanol in the enhancement of drug the solubility in CO2. The amount of impregnated paclitaxel in pure scCO2 (PAbio) was 0.046 μg mg-1, whereas those in PAEtOH condition was […] (0.067 μg mg-1). A similar percentage was reported by Yoda et al. (Yoda et al., 2011) in which the authors report the impregnation of paclitaxel in an amorphous poly(DL-lactic acid) (PDLLA) matrix. The amount of paclitaxel impregnated by Yoda et al. in PDLLA was 2-3 times higher compared with the alginate/gelatin matrix obtained in this work. This can be justified by the higher affinity of the drug-CO2 solution in the hydrophobic PDLLA matrix (Kazarian, 2000). Furthermore, PDLLA may also have greater swelling in the presence of scCO2 than the alginate/gelatin polymer blend (Cooper, 2000; Yoda et al., 2011). […] In the case of the Biosoft® duo, Porges, Coloplast stents the amount of drug impregnated is 6-times lower compared with BUS impregnated with paclitaxel under the same conditions. The lower amount of drug impregnated can be related with lower swelling ability of the polymeric matrix of the commercial stent in scCO2 and/or by lower affinity of the drugs with composition material of the Biosoft® duo, Porges, Coloplast stent.

Where [4] appears, read: 4 h exposure then 72 h in drug-free medium.
Where [5] appears, read: T-24, 4 h exposure then 72 h in drug-free medium.
The mark [6] stands for this setting: DrugCom: commercial non-degradable stent with co-solvent.
The mark [7] stands for this setting: DrugETOH: BUS + 10% ethanol co-solvent.
[8] abbreviates: Drugbio: BUS without co-solvent.

In brackets after ≈: the same amount, converted by molar mass. Where two headings read alike, the source gives them in different places.

In the case of `COc1cccc2c1C(=O)c1c(O)c3c(c(O)c1C2=O)C[C@@](O)(C(=O)CO)C[C@@H]3O[C@H]1C[C@H](N)[C@H](O)[C@H](C)O1` [Doxorubicin, doxorubicin], the half-maximal inhibitory concentration (IC50) is 0.0116 µg/mL (≈ 0.0213 µM) with T24 cancer cells (doxorubicin, T24 cancer cells, Lu et al., 2015a); 4 µg/mL (≈ 7.36 µM) in the data set on T24 cancer cells (doxorubicin, T24 cancer cells, Yu et al., 2015); 2150 ± 58.2 µg/mL (≈ 3950 µM) in data set [1] (setting [4]); 647 ± 21.4 µg/mL (≈ 1190 µM) in data set [1] (72 h exposure); 187 ± 5.18 µg/mL (≈ 344 µM) in data set [2] (setting [5]); 29.3 ± 10 µg/mL (≈ 53.9 µM) in data set [2] (T-24, 72 h exposure). Besides, the “Quantity of drug impregnated by scCO2” value stood at 0.208 μgdrug/mgpolymer in data set [3] (setting [6]), 3.748 μgdrug/mgpolymer in data set [3] (setting [7]) and 3.297 μgdrug/mgpolymer in data set [3] (setting [8]). Moreover, the “increase in the impregnation yield when ethanol was used as a co-solvent” value (“increase in the impregnation yield” for short) in data set [3] is given as 12%.
Turning to `COc1cccc2c1C(=O)c1c(O)c3c(c(O)c1C2=O)C[C@@](O)(C(=O)CO)C[C@@H]3O[C@H]1C[C@H](N)[C@@H](O)[C@H](C)O1` [Epirubicin, epirubicin], the IC50 in data set [1] (setting [4]) was determined as 2050 ± 33.2 µg/mL (≈ 3770 µM); in data set [1] (72 h exposure), 139 ± 13.6 µg/mL (≈ 256 µM); in data set [2] (setting [5]), 67 ± 2.34 µg/mL (≈ 123 µM); in data set [2] (T-24, 72 h exposure), 15.7 ± 1.02 µg/mL (≈ 29 µM). Besides, the “Quantity of drug impregnated by scCO2” value in data set [3] (setting [6]) is given as 0.118 μgdrug/mgpolymer; in data set [3] (setting [7]) it was 1.779 μgdrug/mgpolymer; in data set [3] (setting [8]), 1.498 μgdrug/mgpolymer. The “increase in the impregnation yield” value in data set [3] is 15%.
Consider `Nc1ccn([C@@H]2O[C@H](CO)[C@@H](O)C2(F)F)c(=O)n1` [Gemcitabine, gemcitabine], for which the IC50 in data set [1] (setting [4]) turned out to be 413.6 ± 2.68 µg/mL (≈ 1570 µM); in data set [1] (72 h exposure) it was 237 ± 16.7 µg/mL (≈ 901 µM); in data set [2] (setting [5]), 99 ± 1.29 µg/mL (≈ 376 µM); in data set [2] (T-24, 72 h exposure), 0.89 ± 0.27 µg/mL (≈ 3.38 µM). The “Quantity of drug impregnated by scCO2” value was determined as 2.312 μgdrug/mgpolymer in data set [3] (setting [6]); 19.572 μgdrug/mgpolymer in data set [3] (setting [7]); 19.57 μgdrug/mgpolymer in data set [3] (DrugETOH: BUS + 10% ethanol co-solvent, listed as gemcitabine); 18.183 μgdrug/mgpolymer in data set [3] (setting [8]). In data set [3], the “increase in the impregnation yield” value stood at 8%. Moreover, in data set [3], the “% loaded” value is listed as 2%.
With `CC(=O)O[C@H]1C(=O)[C@@]2(C)[C@H]([C@H](OC(=O)c3ccccc3)[C@]3(O)C[C@H](OC(=O)[C@H](O)[C@@H](NC(=O)c4ccccc4)c4ccccc4)C(C)=C1C3(C)C)[C@]1(OC(C)=O)CO[C@@H]1C[C@@H]2O` [Paclitaxel, paclitaxel], the IC50 was 0.00285 µg/mL (≈ 0.00334 µM) in the data set on T24 cancer cells (paclitaxel, Hadaschik et al., 2008); 0.85 µg/mL (≈ 0.995 µM) in data set [1] (setting [4]); 0.502 µg/mL (≈ 0.587 µM) in data set [1] (72 h exposure); 0.282 µg/mL (≈ 0.33 µM) in data set [2] (setting [5]); 0.0073 µg/mL (≈ 0.00855 µM) in data set [2] (T-24, 72 h exposure). For the same compound, the “Quantity of drug impregnated by scCO2” value in data set [3] (setting [6]) was determined as 0.014 μgdrug/mgpolymer; in data set [3] (setting [7]), 0.067 μgdrug/mgpolymer; in data set [3] (setting [8]), 0.046 μgdrug/mgpolymer. For the same compound, the “% loaded” value in data set [3] is 0.01%.
